Columns and labels:
MAOa = target: T1, MAOa (Homo sapiens, UniProt P21397); test: HPLC-MS of metabolites; type: biochemical; details: oxidised to the aldehyde
T1 construct: commercial recombinant enzyme (Sigma)
T1 sequence (P21397 1-527): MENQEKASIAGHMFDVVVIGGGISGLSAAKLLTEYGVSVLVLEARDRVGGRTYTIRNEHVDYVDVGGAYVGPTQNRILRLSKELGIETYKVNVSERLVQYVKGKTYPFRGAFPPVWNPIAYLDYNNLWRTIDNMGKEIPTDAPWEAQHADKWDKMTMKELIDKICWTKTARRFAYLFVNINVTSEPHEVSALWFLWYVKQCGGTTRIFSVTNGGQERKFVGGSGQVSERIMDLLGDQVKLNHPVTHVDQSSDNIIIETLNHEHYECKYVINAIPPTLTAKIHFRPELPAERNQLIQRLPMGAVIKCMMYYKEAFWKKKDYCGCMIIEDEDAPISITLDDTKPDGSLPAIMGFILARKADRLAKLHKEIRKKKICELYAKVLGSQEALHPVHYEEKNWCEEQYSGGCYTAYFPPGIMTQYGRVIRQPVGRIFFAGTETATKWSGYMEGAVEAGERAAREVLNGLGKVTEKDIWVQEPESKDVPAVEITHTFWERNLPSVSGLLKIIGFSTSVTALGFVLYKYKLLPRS

TbALDH3 = target: T2, TbALDH3 (Trypanosoma brucei, UniProt Q583M9); test: HPLC-MS of metabolites, coupled with MAOa or FBS; type: biochemical; details: aldehyde made in situ from AN3057; oxidised to the carboxylate (AN2861)
T2 construct: gene Tb06.5F5.780; A6-K490 seen in crystal
T2 sequence (Q583M9 1-543): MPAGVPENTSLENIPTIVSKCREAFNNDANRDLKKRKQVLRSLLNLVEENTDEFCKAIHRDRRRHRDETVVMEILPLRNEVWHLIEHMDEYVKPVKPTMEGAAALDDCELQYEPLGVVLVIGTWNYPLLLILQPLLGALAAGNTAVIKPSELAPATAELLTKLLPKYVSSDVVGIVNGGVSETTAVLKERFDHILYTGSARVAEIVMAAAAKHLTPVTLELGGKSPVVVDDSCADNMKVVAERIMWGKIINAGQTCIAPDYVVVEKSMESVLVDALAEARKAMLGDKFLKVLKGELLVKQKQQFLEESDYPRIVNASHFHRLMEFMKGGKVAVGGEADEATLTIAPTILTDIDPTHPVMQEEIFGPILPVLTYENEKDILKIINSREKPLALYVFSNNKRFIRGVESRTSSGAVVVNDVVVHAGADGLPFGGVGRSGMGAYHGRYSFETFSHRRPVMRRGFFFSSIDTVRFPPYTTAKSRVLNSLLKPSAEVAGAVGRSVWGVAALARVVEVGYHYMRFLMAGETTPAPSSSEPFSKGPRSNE

NCc1ccc(Oc2ccc3c(c2)COB3O)cc1 [AN3057, (4-(1-hydroxy-1,3-dihydrobenzo[c][1,2]oxaborol-5-yloxy)phenyl)methanaminium chloride]
HPLC-MS of metabolites (MAOa): the methylamine group in the structure is first converted by MAOa into an aldehyde

O=Cc1ccc(Oc2ccc3c(c2)COB3O)cc1 [AN3057-aldehyde]
HPLC-MS of metabolites, coupled with MAOa or FBS (TbALDH3): converted by MAOa into an aldehyde, and then is further metabolized into a carboxylic acid

From paper PMC5823473, “Host-parasite co-metabolic activation of antitrypanosomal aminomethyl-benzoxaboroles” (PLoS Pathogens, 2018)
